The values below come from patent US20240270821A1, “GIP/GLP1/GCG TRI-RECEPTOR AGONISTS AND USES THEREOF” (priority 2023, published 2024).

Like-named read-outs stand apart in the source and are kept apart here. Starred links: 1 amine or outer side, 2 acyl side, 3 side chain; linkers in the order of their positions; H or OH if unused. Non-standard residues stand in square brackets, D forms with d. Residues, ends and D or L forms follow the SMILES beside them. Groups on a side chain read outwards from the residue. *: point of attachment. C20 diacid = O=C(O)CCCCCCCCCCCCCCCCCCC(=O)*; C18 diacid = O=C(O)CCCCCCCCCCCCCCCCC(=O)*; αMePhe(2-F) = C[C@](N)(Cc1ccccc1F)C(=O)O; γGlu = O=C(O)[C@H](CCC(=O)[*:2])N[*:1]; αMe4Pal = C[C@](N)(Cc1ccncc1)C(=O)O; αMeY = C[C@](N)(Cc1ccc(O)cc1)C(=O)O; αMeF = C[C@](N)(Cc1ccccc1)C(=O)O; 4Pal = N[C@@H](Cc1ccncc1)C(=O)O; αMeL = CC(C)C[C@](C)(N)C(=O)O; αMeS = C[C@](N)(CO)C(=O)O; Orn = NCCC[C@H](N)C(=O)O; AEEA = NCCOCCOCC(=O)O; Aib = CC(C)(N)C(=O)O

Format in all cases: cell-based
Test [1] deals with T1, hGIPR (Homo sapiens, UniProt P48546).
T1 sequence (P48546 22-466): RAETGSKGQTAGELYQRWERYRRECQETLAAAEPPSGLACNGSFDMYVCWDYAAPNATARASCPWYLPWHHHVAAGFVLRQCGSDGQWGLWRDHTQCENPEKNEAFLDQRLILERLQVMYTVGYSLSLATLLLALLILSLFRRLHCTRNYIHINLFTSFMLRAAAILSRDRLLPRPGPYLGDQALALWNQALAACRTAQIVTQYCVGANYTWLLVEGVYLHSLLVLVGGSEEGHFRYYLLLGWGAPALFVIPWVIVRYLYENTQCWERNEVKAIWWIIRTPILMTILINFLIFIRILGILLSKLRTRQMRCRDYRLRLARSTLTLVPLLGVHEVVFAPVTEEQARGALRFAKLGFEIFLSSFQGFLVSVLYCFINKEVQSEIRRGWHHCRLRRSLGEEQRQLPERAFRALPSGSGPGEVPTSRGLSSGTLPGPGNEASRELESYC
Nature of the test: Functional cAMP activity in the presence of 1% HSA. To be noted: read-out: cAMP Rel EC50, hGIPR.

Test [2] concerns the target T2, hGLP-1R (Homo sapiens, UniProt P43220). Nature of the test: Functional cAMP activity in the presence of 1% HSA. To be noted: read-out: cAMP Rel EC50, hGLP-1R.
A further test concerns the target human GcgR (Homo sapiens, UniProt P47871). Nature of the test: Functional cAMP activity in the presence of 1% HSA. To be noted: read-out: cAMP Rel EC50, hGcgR.
Test [3] has as its target T1, hGIPR. In words: Functional cAMP activation in the presence of 0.1% casein (no HSA). To be noted: read-out: Relative cAMP EC50, hGIPR.
Test [4] has as its target T2, hGLP-1R. The description is as above. To be noted: read-out: Relative cAMP EC50, hGLP-1R.
In a further test the target is hGcgR (Homo sapiens, UniProt P47871). The test is described as above. To be noted: read-out: Relative cAMP EC50, hGcgR.
Where [5] appears, read: in the presence of 0.1% casein (no HSA), geometric mean.
Where [6] appears, read: 0.1% casein, no HSA, geometric mean.
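Wherever Relative cAMP EC50, hGIPR is given: intracellular cAMP rise after 30 min at 37 °C read by HTRF against a standard curve, scaled between buffer alone (0%) and top control ligand concentration (100%), four-parameter fit.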
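Wherever Relative cAMP EC50, hGLP-1R is given: intracellular cAMP rise after 30 min at 37 °C read by HTRF, normalized between buffer only (0%) and maximal control ligand (100%), four-parameter variable-slope fit.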
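Wherever Relative cAMP EC50, hGcgR is given: intracellular cAMP rise after 30 min at 37 °C, read by HTRF against a cAMP standard curve, scaled from buffer only (0%) to maximal control ligand response (100%).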

T2 sequence (P43220 24-463): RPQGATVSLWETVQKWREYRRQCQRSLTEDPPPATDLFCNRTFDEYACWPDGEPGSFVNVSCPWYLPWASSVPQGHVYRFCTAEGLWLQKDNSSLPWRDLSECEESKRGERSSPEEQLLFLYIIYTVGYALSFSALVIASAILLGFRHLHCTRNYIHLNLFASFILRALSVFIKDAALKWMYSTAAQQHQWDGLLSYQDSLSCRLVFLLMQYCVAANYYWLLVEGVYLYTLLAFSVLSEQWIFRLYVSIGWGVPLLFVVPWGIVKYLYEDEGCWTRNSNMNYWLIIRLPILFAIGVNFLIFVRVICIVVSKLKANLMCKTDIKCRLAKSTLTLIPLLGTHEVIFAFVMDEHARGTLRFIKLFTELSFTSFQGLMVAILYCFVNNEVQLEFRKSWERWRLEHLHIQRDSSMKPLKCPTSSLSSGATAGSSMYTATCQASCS
hGcgR, sequence (P47871 26-477): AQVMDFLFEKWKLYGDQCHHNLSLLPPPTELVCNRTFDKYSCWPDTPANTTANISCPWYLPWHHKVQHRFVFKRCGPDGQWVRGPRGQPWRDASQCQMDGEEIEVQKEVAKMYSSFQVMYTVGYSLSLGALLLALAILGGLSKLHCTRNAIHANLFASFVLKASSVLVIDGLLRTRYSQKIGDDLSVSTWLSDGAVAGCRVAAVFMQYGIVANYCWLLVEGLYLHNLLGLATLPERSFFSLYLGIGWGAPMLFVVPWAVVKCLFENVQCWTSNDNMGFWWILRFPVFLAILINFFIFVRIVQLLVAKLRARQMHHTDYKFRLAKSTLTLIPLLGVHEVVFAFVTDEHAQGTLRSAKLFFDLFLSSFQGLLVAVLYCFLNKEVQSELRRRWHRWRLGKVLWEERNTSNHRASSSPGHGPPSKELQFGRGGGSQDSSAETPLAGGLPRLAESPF
human GcgR, sequence (P47871 26-477): as above

Turning to `CC[C@H](C)[C@H](NC(=O)[C@H](CC(C)C)NC(=O)[C@H](Cc1ccc(O)cc1)NC(=O)[C@@H](CCC(=O)O)NC(=O)[C@@H](NC(=O)[C@H](Cc1ccccc1)NC(=O)[C@H](CCCN)NC(=O)C(C)(C)NC(=O)[C@H](CCC(N)=O)NC(=O)[C@H](C)NC(=O)[C@H](CCCCNC(=O)CC[C@H](NC(=O)CC[C@H](NC(=O)CCCCCCCCCCCCCCCCC(=O)O)C(=O)O)C(=O)O)NC(=O)[C@H](CCCN)NC(=O)[C@H](CC(=O)O)NC(=O)[C@H](CC(C)C)NC(=O)[C@](C)(CC(C)C)NC(=O)[C@@H](NC(=O)[C@](C)(CO)NC(=O)[C@H](Cc1ccncc1)NC(=O)[C@H](CC(=O)O)NC(=O)[C@H](CO)NC(=O)[C@@H](NC(=O)[C@](C)(Cc1ccccc1F)NC(=O)[C@@H](NC(=O)CNC(=O)[C@H](CCC(N)=O)NC(=O)C(C)(C)NC(=O)[C@@H](N)Cc1ccc(O)cc1)[C@@H](C)O)[C@@H](C)O)[C@@H](C)CC)[C@@H](C)CC)C(=O)N[C@@H](CCC(=O)O)C(=O)NCC(=O)NCC(=O)N1CCC[C@H]1C(=O)N[C@@H](CO)C(=O)N[C@@H](CO)C(=O)NCC(=O)N[C@@H](CCC(=O)O)C(=O)N1CCC[C@H]1C(=O)N1CCC[C@H]1C(=O)N1CCC[C@H]1C(=O)N[C@@H](CCC(=O)O)C(N)=O` [Example 448] (H-Y[Aib]QGT[αMePhe(2-F)]TSD[4Pal][αMeS]I[αMeL]LD[Orn]K([γGlu-γGlu-C18 diacid])AQ[Aib][Orn]FI[dE]YLIEGGPSSGEPPPE-NH2), the concentration giving a half-maximal response (EC50) turned out to be 1.35 nM at hGIPR [1]; 19.5 nM on hGLP-1R [2]; 302 nM at human GcgR; 0.0171 nM at hGIPR [3]; 0.336 nM at hGLP-1R [4]; 4.54 nM on hGcgR.
With “H-Y[Aib]QGT[αMePhe(2-F)]TSD[4Pal][αMeS]I[αMeL]LD[Orn]K([γGlu-γGlu-C18 diacid])AQ[Aib]NFI[dE][αMeY]LIEGGPSSGEPEPSEG-NH2 [Example 473]”, the 50% effective concentration (EC50) at hGIPR [1] was determined as 1.11 nM; at hGLP-1R [2], 11.4 nM; on human GcgR, 311 nM; at hGIPR [3] it was 0.0101 nM; on hGLP-1R [4], 0.173 nM; at hGcgR, 2.72 nM.
For “H-Y[Aib]QGTFTSD[4Pal]SQ[αMeL]LD[Orn]K([γGlu-γGlu-C18 diacid])AQ[αMe4Pal]AFIEYLIE[dA]GPSSGEPPPSGS-NH2 [Example 1019]”, the EC50 stood at 21.3 nM at hGIPR [1]; 161 nM at hGLP-1R [2]; 579 nM on human GcgR; 0.169 nM on hGIPR [3] (setting [5]); 1.33 nM at hGLP-1R [4] (setting [5]); 4.36 nM on hGcgR (setting [5]).
With “H-Y[Aib]QGT[αMePhe(2-F)]TSDYSI[αMeL]LDKK([AEEA-AEEA-γGlu-C20 diacid])AA[Aib]AFIEYLIETGPSSGAPPPSEG-NH2 [Example 383]”, the EC50 is 32.3 nM at hGIPR [1] (HEK-293 clonal cells expressing hGIPR, in the presence of 1% HSA, geometric mean of relative EC50); 79.1 nM at hGLP-1R [2] (HEK-293 clonal cells expressing hGLP-1R, in the presence of 1% HSA, geometric mean of relative EC50); 530 nM at human GcgR (HEK-293 clonal cells expressing hGcgR, in the presence of 1% HSA, geometric mean of relative EC50); 0.0406 nM at hGIPR [3] (setting [5]); 0.258 nM at hGLP-1R [4] (setting [5]); 1.27 nM at hGcgR (setting [5]).
Turning to “H-Y[Aib]QGT[αMeF]TSD[4Pal][αMeS]I[αMeL]LD[Orn]K([γGlu-γGlu-C18 diacid])AQ[αMe4Pal]EFI[dE][αMeY]LIEGGPSSGAPPPSGSE-NH2 [Example 1172]”, the EC50 amounted to 0.7 nM on hGIPR [1]; 45.5 nM at hGLP-1R [2]; 303 nM on human GcgR; 0.00886 nM at hGIPR [3] (setting [5]); 0.44 nM at hGLP-1R [4] (setting [5]); 2.52 nM on hGcgR (setting [5]).
As for “H-Y[Aib]QGT[αMePhe(2-F)]TSD[4Pal][αMeS]I[αMeL]LD[Orn]K([AEEA-γGlu-γGlu-C18 diacid])AQ[αMe4Pal]EFI[dE][αMeY]LIEGGPSSGEPPPSGE-NH2 [Example 1177]”, the 50% effective concentration (EC50) is 0.544 nM at hGIPR [1]; 43.6 nM on hGLP-1R [2]; 156 nM at human GcgR; 0.0114 nM on hGIPR [3] (setting [5]); 0.681 nM at hGLP-1R [4] (setting [5]); 4.23 nM at hGcgR (setting [5]).
On to `CC[C@H](C)[C@H](NC(=O)[C@H](Cc1ccccc1)NC(=O)[C@H](C)NC(=O)C(C)(C)NC(=O)[C@H](CCC(N)=O)NC(=O)[C@H](C)NC(=O)[C@H](CCCCNC(=O)COCCOCCNC(=O)COCCOCCNC(=O)CC[C@H](NC(=O)CCCCCCCCCCCCCCCCC(=O)O)C(=O)O)NC(=O)[C@H](CCCCN)NC(=O)[C@H](CC(=O)O)NC(=O)[C@H](CC(C)C)NC(=O)[C@H](CC(C)C)NC(=O)[C@@H](NC(=O)[C@](C)(CO)NC(=O)[C@H](Cc1ccc(O)cc1)NC(=O)[C@H](CC(=O)O)NC(=O)[C@H](CO)NC(=O)[C@@H](NC(=O)[C@](C)(Cc1ccccc1F)NC(=O)[C@@H](NC(=O)CNC(=O)[C@H](CCC(N)=O)NC(=O)C(C)(C)NC(=O)[C@@H](N)Cc1ccc(O)cc1)[C@@H](C)O)[C@@H](C)O)[C@@H](C)CC)C(=O)N[C@@H](CCC(=O)O)C(=O)N[C@@H](Cc1ccc(O)cc1)C(=O)N[C@@H](CC(C)C)C(=O)N[C@@H](CCC(=O)O)C(=O)N[C@@H](CCC(=O)O)C(=O)NCC(=O)NCC(=O)N1CCC[C@H]1C(=O)N[C@@H](CO)C(=O)N[C@@H](CO)C(=O)NCC(=O)N[C@@H](C)C(=O)N1CCC[C@H]1C(=O)N1CCC[C@H]1C(=O)N1CCC[C@H]1C(=O)N[C@@H](CCC(=O)O)C(N)=O` [Example 468] (H-Y[Aib]QGT[αMePhe(2-F)]TSDY[αMeS]ILLDKK([AEEA-AEEA-γGlu-C18 diacid])AQ[Aib]AFIEYLEEGGPSSGAPPPE-NH2), for which the EC50 at hGIPR [1] is 4.76 nM; at hGLP-1R [2], 30.7 nM; on human GcgR it was 195 nM; on hGIPR [3] it was 0.0222 nM; at hGLP-1R [4], 0.466 nM; at hGcgR, 1.95 nM.
In the case of “H-Y[Aib]QGTFTSDFS[Orn][αMeL]LDKK([AEEA-γGlu-C20 diacid])AQ[Aib]AFIEYLLAGGPSSGAPPPSGS[AEEA]-NH2 [Example 83]”, the EC50 at hGIPR [1] was 91.8 nM; on hGLP-1R [2] it was 653 nM; at human GcgR, 1270 nM; on hGIPR [3] (setting [5]), 0.185 nM; on hGLP-1R [4] (setting [5]), 2.85 nM; on hGcgR (setting [5]), 10.2 nM.
Take “H-Y[Aib]QGT[αMePhe(2-F)]TSD[4Pal][αMeS]I[αMeL]LD[Orn]K([AEEA-γGlu-C18 diacid])AQ[Aib][Orn]FI[dE][αMeY]LIEGGPSSGEPPPEGTGE-NH2 [Example 697]”: the EC50 stood at 0.607 nM at hGIPR [1]; 18.2 nM on hGLP-1R [2]; 130 nM at human GcgR; 0.0109 nM on hGIPR [3]; 0.235 nM on hGLP-1R [4]; 1.71 nM at hGcgR.
As for “H-Y[Aib]QGTFTSD[4Pal]SK[αMeL]LDKK([γGlu-γGlu-C18 diacid])AQ[Aib]AFIEYLIE[Aib]GPSSGAPPPSGS-NH2 [Example 907]”, the EC50 was 8.86 nM at hGIPR [1]; 123 nM at hGLP-1R [2]; 1210 nM on human GcgR; 0.103 nM on hGIPR [3] (setting [5]); 1.15 nM at hGLP-1R [4] (setting [5]); 5.79 nM on hGcgR (setting [5]).
On to “H-Y[Aib]QGT[αMePhe(2-F)]TSD[4Pal][αMeS]I[αMeL]LD[Orn]K([AEEA-γGlu-C18 diacid])AQ[αMe4Pal]EFI[dE][αMeY]LIEGGPSSGAPPPSGGGEE-NH2 [Example 1214]”, for which the concentration giving a half-maximal response (EC50) at hGIPR [1] worked out at 0.771 nM; on hGLP-1R [2], 50 nM; at human GcgR it was 210 nM; on hGIPR [3] (setting [6]), 0.00851 nM; at hGLP-1R [4] (setting [6]), 0.55 nM; on hGcgR (setting [6]), 1.85 nM.
Regarding “H-Y[Aib]QGTFTSD[4Pal]SQ[αMeL]LDKK([AEEA-γGlu-C18 diacid])AQ[αMe4Pal]AFIEYLIE[Aib]GPSSGAPPPSGSEEE-NH2 [Example 898]”, the EC50 on hGIPR [1] was 25.5 nM; on hGLP-1R [2], 584 nM; on human GcgR it was 770 nM; on hGIPR [3] (setting [5]), 0.287 nM; at hGLP-1R [4] (setting [5]), 4.62 nM; at hGcgR (setting [5]) it was 3.39 nM.
